In brackets after ≈: the same amount, converted by molar mass.

For this data set the following is noted: buffer; pH 7.4; 200.0 µM.
`COc1ccccc1C(=O)COC(=O)c1ccc(Cl)nc1` yielded a solubility (kinetic) of 44.6 µg/mL (≈ 146 µM). As to `Cc1ccccc1C(=O)NCCCNC(=O)c1ccccn1`, the kinetic solubility was above 44.6 µg/mL. In turn, `N#CCCN(Cc1cccnc1)C(=S)NC(=O)c1ccccc1` returned a kinetic solubility above 48.7 µg/mL. Next, `CSc1ccccc1NC(=O)c1cc(Cl)sc1Cl`: 1.4 µg/mL (≈ 4.4 µM); `CCNC(=O)c1ccc(CSc2nc3ccccc3s2)cc1`: 6.7 µg/mL (≈ 20.4 µM); `Cn1ncc(Cl)c1C(=O)Nc1ccc(CN2CCCCC2)cc1`: above 49.9 µg/mL. Take `CCC(C(=O)NC1CCN(C)CC1)c1ccccc1` (centres undefined): the kinetic solubility was above 39.1 µg/mL.

In the case of `CC1CCN(S(=O)(=O)c2cccc3cccnc23)CC1`, the kinetic solubility stood at 41.8 µg/mL (≈ 144 µM).

With `N#Cc1cccc(NC(=O)CCc2ccc(S(=O)(=O)N3CCOCC3)cc2)c1`, the solubility (kinetic) came out at 48 µg/mL (≈ 120 µM). `COc1ccc(-c2cc(C(=O)Nc3ccc(OC)cc3OC)no2)cc1`: the kinetic solubility is below 0.4 µg/mL.

Regarding `O=C(NCc1ccccc1Cl)c1cnccc1C(F)(F)F`, the kinetic solubility was above 47.2 µg/mL. Turning to `COc1ccc(C2(CNC(=O)c3ccccc3)CCCC2)cc1OC`, the solubility (kinetic) came out at 8.2 µg/mL (≈ 24.2 µM). As for `COC(=O)c1ccc(C(=O)OC)c(NC(=S)N2CCCC(CO)C2)c1` (centres undefined), the kinetic solubility was determined as 50.9 µg/mL (≈ 139 µM). This solubility kinetic is about 6.2-fold higher than that of the molecule before. Under `Cc1cc(NCCOCCO)n2c(nc3ccccc32)c1C#N` stands above 46.6 µg/mL; under `COc1cccc(-c2nc(-c3cccs3)no2)c1`, below 0.3 µg/mL; under `C=CCNc1nc(Cl)nc(NCc2ccco2)n1`, 1.9 µg/mL (≈ 7.15 µM). `Cc1cccc(NS(=O)(=O)c2ccc3c(c2)NC(=O)CC(=O)N3)c1` came in with a solubility (kinetic) above 51.8 µg/mL. `CCc1ccccc1Cn1c(=O)oc2cccnc21` yielded a solubility (kinetic) above 38.1 µg/mL. `CSc1cc(C)c(OCC(=O)Nc2ccc(NC(C)=O)cc2)c(C)c1` had a solubility (kinetic) of 4.4 µg/mL (≈ 12.3 µM).

In turn, `CCSC(=O)NC1CCCCC1` returned a kinetic solubility of 14.4 µg/mL (≈ 76.9 µM). On to `O=C(Nc1nc2ccccc2[nH]1)c1ccc(Cl)cc1`, for which the kinetic solubility stood at 1.8 µg/mL (≈ 6.62 µM). As for `CCc1ccccc1N1C(=O)C(Cl)=C(N2CCOCC2)C1=O`, the kinetic solubility was 45.8 µg/mL (≈ 143 µM). Compared with the last molecule, the solubility kinetic is about 25-fold higher. In turn, `COc1ccccc1CC(=O)NC1CCN(Cc2ccccc2)CC1` yielded a kinetic solubility above 50.8 µg/mL.

`Cc1cccc(NC(=O)NC2CCCCCCC2)c1` showed a solubility (kinetic) of 5.2 µg/mL (≈ 20 µM). Molecule `COc1ccccc1-c1noc(CCCC(=O)NC2CCCC2)n1` showed a solubility (kinetic) of 44.4 µg/mL (≈ 135 µM). In the case of `CC(=O)/C(C#N)=C1\NC(=O)C(Cc2ccc(C)c(Cl)c2)S1` (centres undefined), the solubility (kinetic) is above 48.1 µg/mL. Take `Cc1ccc(NCc2ccc(O)c3ncccc23)cc1`: the solubility (kinetic) is 5 µg/mL (≈ 18.9 µM).

Molecule `CC(=O)c1ccc2noc(-c3ccccc3)c2c1` gave a solubility (kinetic) of 31.8 µg/mL (≈ 134 µM). As to `O=C(c1c(F)cccc1F)N1CCCc2ccccc21`, the solubility (kinetic) was above 41 µg/mL. `OCCC1CN(Cc2cccc(O)c2)CCN1CCc1ccccc1` (centres undefined) returned a kinetic solubility of 50.8 µg/mL (≈ 149 µM). Next, `Cc1cccc(N2CCCn3c2nc2c3c(=O)[nH]c(=O)n2C)c1`: above 46.7 µg/mL. With `Cc1ccc(C)c(NC(=S)NC23CN4CN(CN(C4)C2)C3)c1`, the kinetic solubility is above 47.6 µg/mL. For `Cc1cc(C(=O)Nc2ccc3c(c2)OCCO3)ccc1[N+](=O)[O-]`, the solubility (kinetic) was below 0.3 µg/mL.

Molecule `CNC(=O)c1cc(S(=O)(=O)NC2CCCCCC2)ccc1C` came in with a kinetic solubility above 48.7 µg/mL. `COc1ccccc1N1CCN(S(=O)(=O)c2ccc(Cl)cc2)CC1` came in with a solubility (kinetic) of 4 µg/mL (≈ 10.9 µM). Regarding `CCc1c(C)nc(N)nc1Cl`, the solubility (kinetic) is 24.1 µg/mL (≈ 140 µM).

With `Cc1nc2ccc(Br)cc2c2c1CC(CBr)O2` (centres undefined), the kinetic solubility came to 2.2 µg/mL (≈ 6.16 µM). As to `CCCC(=O)N/C(N)=N/c1nc(C)c2ccccc2n1`, the kinetic solubility was determined as 15.3 µg/mL (≈ 56.4 µM).

`CCOc1cc(C(=O)Nc2ccc(N3CCOCC3)cc2)cc(Br)c1OC` displayed a solubility (kinetic) of 2 µg/mL (≈ 4.59 µM).

In the case of `CC(C)c1nc2sc3c(=O)[nH]c(=S)[nH]c3c2c2c1CCCC2`, the solubility (kinetic) is 45.9 µg/mL (≈ 138 µM). `COc1ccc(-c2nc3c(s2)CN(S(C)(=O)=O)CC3)cc1OC` displayed a kinetic solubility of 10.6 µg/mL (≈ 29.9 µM).

`O=C(CCCNC(=O)c1ccc(Cl)cc1)Nc1nccs1` showed a kinetic solubility of 10.3 µg/mL (≈ 31.8 µM). Molecule `NC(=O)CCCc1nc(-c2ccccc2)no1` yielded a kinetic solubility above 34.7 µg/mL.

`CCc1nc(SCC(=O)O)c2c3c(sc2n1)COC(C)(C)C3` had a kinetic solubility above 50.8 µg/mL. Under `Cc1ccc(CONC(=O)c2cccc(C)c2)cc1` stands 38.2 µg/mL (≈ 150 µM). In the case of `CCCc1cc(C(=O)Nc2cc(Cl)ccc2O)no1`, the kinetic solubility is 0.6 µg/mL (≈ 2.14 µM).

`COc1cc(OC)cc(C(=O)N2CC(=O)Nc3ccccc32)c1` displayed a kinetic solubility above 46.8 µg/mL. `O=C(O)C1C2CCC(O2)C1C(=O)Nc1ccc(Br)cc1F` (centres undefined) showed a solubility (kinetic) above 53.7 µg/mL. Regarding `CSc1nsc(SCC(=O)NCc2ccccc2)n1`, the kinetic solubility was 46.7 µg/mL (≈ 150 µM).

Take `Cc1ccc(C2NC(=O)c3ccccc3O2)cc1` (centres undefined): the solubility (kinetic) amounted to 10.6 µg/mL (≈ 44.3 µM). With `O=C(CSc1ccc2c(c1)OCCO2)Nc1cccnc1`, the solubility (kinetic) was above 45.4 µg/mL.

Molecule `COc1ccc(C(=O)OCC(=O)Nc2ccccc2)cc1[N+](=O)[O-]` had a kinetic solubility of 3 µg/mL (≈ 9.08 µM). `N#C/C(=C\c1ccccc1)C(=O)N1CCC(C(N)=O)CC1` showed a solubility (kinetic) of 40.1 µg/mL (≈ 142 µM). `O=C(CSc1nncn1-c1ccccc1)N1CCCC1` showed a solubility (kinetic) above 43.3 µg/mL. As to `N#Cc1ccc(OCC(=O)Nc2ccc(S(=O)(=O)N3CCOCC3)cc2)cc1`, the kinetic solubility came out at 5.5 µg/mL (≈ 13.7 µM). Consider `COC(=O)C1(C(=O)O)Cc2cc([N+](=O)[O-])ccc2N2CCCC21` (centres undefined), for which the kinetic solubility was determined as 47.9 µg/mL (≈ 150 µM).

The molecule `Brc1cccc(CN2CCCCCC2)c1` registered a solubility (kinetic) of 15.2 µg/mL (≈ 56.7 µM). The molecule `CC12CC3CC(C)(C1)CC(NCc1ccncc1)(C3)C2.Cl` came in with a solubility (kinetic) above 46 µg/mL.

`Cc1ccc(NC(=O)c2cccc(N3C(=O)C4C5C=CC(C5)C4C3=O)c2)cc1C` (centres undefined) gave a kinetic solubility of 1.5 µg/mL (≈ 3.88 µM).

On to `O=C1C(CSCc2ccccc2)NC(=S)N1c1ccccc1` (centres undefined), for which the kinetic solubility is 2.9 µg/mL (≈ 8.83 µM). Next, `CC(C)CC(=O)Nc1cc2c3c(c1)CCN3C(=O)CC2`: above 40.9 µg/mL. In turn, `O=C(Cc1ccc(F)cc1)NC1CCCCCC1` returned a solubility (kinetic) above 37.4 µg/mL. For the molecule `CCOc1ncccc1C(=O)OCC(=O)NCc1ccccc1`, the solubility (kinetic) is 45.9 µg/mL (≈ 146 µM). For the molecule `O=C(CSc1nc2c(cnn2-c2ccccc2)c(=O)[nH]1)NCC1CCCO1` (centres undefined), the kinetic solubility was above 57.8 µg/mL. The molecule `CN(C(=O)COC(=O)Cc1ccccc1[N+](=O)[O-])C1CCS(=O)(=O)C1` (centres undefined) returned a kinetic solubility above 55.6 µg/mL. Under `Cc1cnc(C(=O)OCC(=O)c2ccc(Cl)cc2)cn1` stands above 43.6 µg/mL; under `N#C/C(=C\c1ccncc1)c1ccc(NC(N)=O)cc1`, 13.8 µg/mL (≈ 52.2 µM); under `COC(=O)c1nn(-c2ccc(C)cc2)ccc1=O`, above 36.6 µg/mL. As to `Cc1cc(C)cc(C(=O)NC(=S)Nc2cccnc2)c1`, the kinetic solubility was determined as 8.4 µg/mL (≈ 29.4 µM).

As for `CCC(Oc1ccccc1)C(=O)Nc1ncc([N+](=O)[O-])s1` (centres undefined), the kinetic solubility was above 46.1 µg/mL. Under `COc1ccccc1C1(O)C(=O)Nc2ccc(C)cc21` (centres undefined) stands above 40.4 µg/mL; under `COc1cc(CC(=O)OCC(=O)Nc2ccc(N(C)C)cc2)cc(OC)c1OC`, above 60.4 µg/mL; under `CCn1cnc2cc(NC(=O)c3ccc(C)cc3)ccc21`, above 41.9 µg/mL. The molecule `N#CCC(=O)Nc1ccc(C(=O)OCC(=O)c2c[nH]c3ccccc23)cc1` gave a kinetic solubility of 4.7 µg/mL (≈ 13 µM). Next, `O=[N+]([O-])C1=CC=C2C(=NC3(CCCCC3)N2O)C1=NCCc1ccccc1`: 1.4 µg/mL (≈ 3.82 µM); `N#C/C(=C\c1cccc(Br)c1)C(=O)N1CCCCC1`: above 47.9 µg/mL; `Cn1c(SCC(=O)NC2CCCC2)nc2c(c1=O)SCC2`: above 48.8 µg/mL.

As for `COc1cc(S(=O)(=O)NCc2ccc3c(c2)OCO3)ccc1F`, the solubility (kinetic) stood at 14.8 µg/mL (≈ 43.6 µM). Next, `O=C(NCCc1c[nH]c2ccccc12)c1cnccn1`: above 39.9 µg/mL. For the molecule `Cc1ccc(NC(=S)Nc2cccc3cnccc23)cc1`, the solubility (kinetic) was 30 µg/mL (≈ 102 µM). In the case of `CC(=O)N(c1cccc(C)c1)S(=O)(=O)c1ccc(Cl)cc1`, the solubility (kinetic) is 32.7 µg/mL (≈ 101 µM). Next, `Cc1cccc(NC(=O)CCOc2ccccc2)c1C`: 15.6 µg/mL (≈ 57.9 µM); `O=C(O)c1ccccc1SCc1csc(-c2ccccc2)n1`: above 49.1 µg/mL; `Cn1nnc(NC(=O)c2ccc(Br)o2)n1`: above 40.8 µg/mL. Next, `CCCNc1nc(Cl)nc(NC(C)(C)C)n1`: 17.1 µg/mL (≈ 70.2 µM); `CSCC[C@H](NC(=O)c1cccc(S(=O)(=O)N2CCCCCC2)c1)c1nc2ccccc2[nH]1`: 2.5 µg/mL (≈ 5.14 µM). In the case of `Cc1cc(OC(F)F)ccc1NC(=O)Nc1ccc2c(c1)OCO2`, the kinetic solubility was below 0.4 µg/mL. Consider `O=C(Nc1ccc(F)c([N+](=O)[O-])c1)C(=O)c1c(O)[nH]c2ccccc12`, for which the solubility (kinetic) is above 51.5 µg/mL. `O=C(c1ccc(CNS(=O)(=O)c2cccc(Cl)c2)cc1)N1CCCCC1` displayed a kinetic solubility of 2.6 µg/mL (≈ 6.62 µM). Molecule `CCC(=O)N(Cc1cc2ccccc2[nH]c1=O)c1ccccc1OC` returned a kinetic solubility of 32.2 µg/mL (≈ 95.7 µM). As to `Cc1cccc(NS(=O)(=O)c2c(C)noc2C)c1`, the solubility (kinetic) was above 39.9 µg/mL.

As to `COc1cccc(Nc2ncc(C#N)c(N)n2)c1`, the solubility (kinetic) was 31.9 µg/mL (≈ 132 µM).

The molecule `CCn1c(C)nc2cc(C(=O)NN=Cc3ccccc3OC(F)F)ccc21` registered a solubility (kinetic) above 55.9 µg/mL. Under `CCN1C(=O)CC(N2CCC(C(=O)N3CCCCCC3)CC2)C1=O` (centres undefined) stands above 50.3 µg/mL; under `O=c1c(Cl)c2oc3ccccc3nc-2c2ccccc12`, 4.2 µg/mL (≈ 14.9 µM). On to `O=[N+]([O-])c1ccccc1S(=O)(=O)N1CCCC(C(F)(F)F)C1` (centres undefined), for which the solubility (kinetic) stood at 3.1 µg/mL (≈ 9.16 µM). `CCc1noc(C)c1C(=O)OCC(=O)N1CCc2ccccc21` had a solubility (kinetic) of 4.6 µg/mL (≈ 14.6 µM). Under `O=S1(=O)CCN(C(CCO)c2cccc(C(F)(F)F)c2)CC1` (centres undefined) stands above 50.6 µg/mL; under `CNC(=S)Nc1ccc(Cc2ccncc2)cc1`, above 38.6 µg/mL; under `COC(=O)c1sc(S(=O)(=O)N2CCN(c3ccccc3F)CC2)c(C(=O)OC)c1C`, 2.1 µg/mL (≈ 4.6 µM).

`CCCNC(=O)CSc1nc2ccc(OCC)cc2s1` registered a solubility (kinetic) of 7.2 µg/mL (≈ 23.2 µM). The molecule `CC(=O)c1ccccc1NS(=O)(=O)c1ccc2c(c1)CC(=O)N2` returned a solubility (kinetic) of 29.9 µg/mL (≈ 90.5 µM). Against the preceding molecule, the solubility kinetic is about 4.2-fold higher. Regarding `C=CCOc1ccc(/C=C/C(=O)OCC(=O)NC2CCCCCCC2)cc1`, the kinetic solubility is below 0.8 µg/mL.

For the molecule `CC(NC(=S)Nc1ccccc1)C(c1cccs1)N1CCOCC1` (centres undefined), the solubility (kinetic) was determined as 3.1 µg/mL (≈ 8.57 µM).

One may read the solubility (kinetic) as the concentration staying in solution when a stock, usually in DMSO, is diluted into the medium.
